Assay results taken from patent US5804581A, “Inhibition of matrix metalloproteases by substituted phenalkyl compounds” (Bayer Corporation, priority 1997, dated 1998).
Read-outs that look alike come from different tables or passages of the source.

Experiments:
[1] = fenbufen analogs, Child, et al.; cited from earlier work
[2] = target: T1, Human Recombinant Gelatinase A (MMP-2) (Homo sapiens, UniProt P08253); assay: P218 quenched fluorescence (microfluorometric profiling) assay, MMP-2; format: biochemical
T1 sequence (P08253 110-660): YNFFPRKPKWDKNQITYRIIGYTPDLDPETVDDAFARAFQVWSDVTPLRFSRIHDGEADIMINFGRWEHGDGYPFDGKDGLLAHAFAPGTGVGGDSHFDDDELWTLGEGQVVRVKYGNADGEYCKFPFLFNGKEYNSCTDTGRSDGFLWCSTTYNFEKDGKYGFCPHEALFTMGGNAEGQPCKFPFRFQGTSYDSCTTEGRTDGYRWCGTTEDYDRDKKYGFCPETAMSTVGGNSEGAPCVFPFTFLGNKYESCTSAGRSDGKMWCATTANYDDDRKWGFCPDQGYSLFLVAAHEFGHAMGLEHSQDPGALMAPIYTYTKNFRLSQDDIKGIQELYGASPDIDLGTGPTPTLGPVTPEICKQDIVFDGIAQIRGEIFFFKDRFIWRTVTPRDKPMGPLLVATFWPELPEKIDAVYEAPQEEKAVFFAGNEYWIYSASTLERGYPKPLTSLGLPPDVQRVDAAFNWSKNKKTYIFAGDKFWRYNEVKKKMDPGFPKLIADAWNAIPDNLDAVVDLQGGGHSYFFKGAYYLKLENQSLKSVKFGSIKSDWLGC

[3] = target: T2, Human Recombinant Gelatinase B (MMP-9) (Homo sapiens, UniProt P14780); assay: P218 quenched fluorescence (microfluorometric profiling) assay, MMP-9; format: biochemical
T2 construct: made in house
Procedure: The assay was run with each invention compound and the three MMPs, Mmp-3, MMP-9 and MMP-2, analyzed in parallel, adapted as follows for a 96-well microtiter plate and a Hamilton AT® workstation. […] P218 is currently being produced BACHEM exclusively for Bayer. P218 has the structure: […] The enzyme was dialyzed against the same buffer to remove the APMA. Hamiltion Microlab AT Plus: The MMP-Profiling Assay is performed robotically on a Hamilton MicroLab AT Plus®. The Hamilton is programmed to: (1) serially dilute up to 11 potential inhibitors automatically from a 2.5 mM stock in 100% DMSO; (2) distribute substrate followed by inhibitor into a 96 well Cytofluor plate; and (3) add a single enzyme to the plate with mixing to start the reaction. Subsequent plates for each additional enzyme are prepared automatically by beginning the program at the substrate addition point, remixing the diluted inhibitors and beginning the reaction by addition of enzyme. In this way, all MMP assays were done using the same inhibitor dilutions. Millipore Cytofluor II. […] MMP Microfluorometric Profiling Assay. […] The Hamilton is programmed to serially dilute up to 11 compounds from a 2.5 mM stock (100% DMSO) to 10× the final compounds concentrations in the assay. Initially, the instrument delivers various amounts of microfluoromentric reaction buffer (MRB) to a 96 tube rack of 1 ml Marsh dilution tubes. The instrument then picks up 20 μl of inhibitor (2.5 mM) from the sample rack and mixes it with a buffer in row A of the Marsh rack, resulting in a 50 μM drug concentration. The inhibitors are then serially diluted to 10, 5, 1, 0.2, 0.05 and 0.01 μM. […] The instrument re-mixes and loads 14.5 μl of diluted compound from rows A to G in the Marsh rack to corresponding rows in the microtiter plate. (Row H represents the "background" row and 39.5 μl of MRB is delivered in placed of drug or enzyme). […] After addition and mixing of the enzyme, the plate is covered and incubated for 25 min. at 37° C. Additional enzymes are tested in the same manner by beginning the Hamilton program with the distribution of P218 substrate to the microtiter plate, followed by re-mixing and distribution of the drug from the same Marsh rack to the microtiter plate. The second (or third, etc.) MMP to be tested is then distributed from a reagent rack to the microtiter plate with mixing, prior to covering and incubation. This is repeated for all additional MMP's to be tested. IC50 and Ki Determination in Microfluorometric Assay: Data generated on the Cytofluor II is copied from an exported ".CSV" file to a master Excel spreadsheet. […] The percent inhibition is determination for each drug concentration by comparing the amount of hydrolysis (fluorescence units generated over 25 minutes of hydrolysis) of wells containing compound with the "enzyme only" wells in column 1. Following subtraction of the background the percent inhibition was calculated as: ((Control values-Treated values)/Control values)×100 Percent inhibitions were determined for inhibitor concentrations of 5, 1, 0.5, 0.1, 0.02, 0.005 and, 0.001 μM of drug. Linear regression analysis of percent inhibition versus log inhibitor concentration was used to obtain IC50 values.

[4] = target: T3, Recombinant Human CHO Stromelysin (MMP-3) (Homo sapiens, UniProt P08254); assay: P218 quenched fluorescence (microfluorometric profiling) assay, MMP-3; format: biochemical
T3 construct: made in house; host or cells: CHO cells
Source text: P218 is a synthetic substrate containing a 4-acetyl-7-methoxycoumarin (MCA) group in the N-terminal position and a 3-[2, 4-dinitrophenyl]-L-2,3-diaminopropionyl (DPA) group internally.
The reaction was stopped by addition of soybean trypsin inhibitor (SBTI; 5:1 w/w to trypsin concentration). This activation protocol results in the formation of 45 kDa active MMP-3, which still contains the C-terminal portion of the enzyme.
Microfluorometric Reaction Buffer (MRB): Dilution of test compounds, enzymes, and P218 substrate for the microfluorometric assay were made in microfluorometric reaction buffer consisting of 50 mM 2-(N-morpholino)ethanesulfonic acid (MES) at pH 6.5 with 10 mM CaCl2, 150 mM NaCl, 0.005% Brij-35 and 1% DMSO.
MMP Microfluorometric Profiling Assay. The assay is done with a final substrate concentration of 6 μM P218 and approximately 0.5 to 0.8 nM MMP with variable drug concentrations. The Hamilton is programmed to serially dilute up to 11 compounds from a 2.5 mM stock (100% DMSO) to 10× the final compounds concentrations in the assay. Initially, the instrument delivers various amounts of microfluoromentric reaction buffer (MRB) to a 96 tube rack of 1 ml Marsh dilution tubes. The instrument then picks up 20 μl of inhibitor (2.5 mM) from the sample rack and mixes it with a buffer in row A of the Marsh rack, resulting in a 50 μM drug concentration. The inhibitors are then serially diluted to 10, 5, 1, 0.2, 0.05 and 0.01 μM. […] The instrument re-mixes and loads 14.5 μl of diluted compound from rows A to G in the Marsh rack to corresponding rows in the microtiter plate. (Row H represents the "background" row and 39.5 μl of MRB is delivered in placed of drug or enzyme). […] (The enzyme reservoir is pretreated with 1% BSA in 50 mM Tris, pH 7.5 containing 150 mM NaCl for 1 hour at room temp., followed by extensive H2 O washing and drying at room temp.).
IC50 and Ki Determination in Microfluorometric Assay: Data generated on the Cytofluor II is copied from an exported ".CSV" file to a master Excel spreadsheet. Data from several different MMPs (one 96 well plate per MMP) were calculated simultaneously. The percent inhibition is determination for each drug concentration by comparing the amount of hydrolysis (fluorescence units generated over 25 minutes of hydrolysis) of wells containing compound with the "enzyme only" wells in column 1.

[5] = test system: human colon tumor; conditions: intraperitoneally; orthotopic model in nude mice; cited from earlier work
[6] = test system: human ovarian carcinoma xenografts; conditions: batimastat given intraperitoneally; cited from earlier work
[7] = P218 6 μM, pH 6.5, 25 min, 37° C., read-out: MMP-2 Ki
[8] = P218 6 μM, pH 6.5, 25 min, 37° C., read-out: MMP-9 Ki
[9] = P218 6 μM, pH 6.5, 25 min, 37° C., read-out: MMP-3 Ki

T2 sequence (P14780 107-707 limits assumed): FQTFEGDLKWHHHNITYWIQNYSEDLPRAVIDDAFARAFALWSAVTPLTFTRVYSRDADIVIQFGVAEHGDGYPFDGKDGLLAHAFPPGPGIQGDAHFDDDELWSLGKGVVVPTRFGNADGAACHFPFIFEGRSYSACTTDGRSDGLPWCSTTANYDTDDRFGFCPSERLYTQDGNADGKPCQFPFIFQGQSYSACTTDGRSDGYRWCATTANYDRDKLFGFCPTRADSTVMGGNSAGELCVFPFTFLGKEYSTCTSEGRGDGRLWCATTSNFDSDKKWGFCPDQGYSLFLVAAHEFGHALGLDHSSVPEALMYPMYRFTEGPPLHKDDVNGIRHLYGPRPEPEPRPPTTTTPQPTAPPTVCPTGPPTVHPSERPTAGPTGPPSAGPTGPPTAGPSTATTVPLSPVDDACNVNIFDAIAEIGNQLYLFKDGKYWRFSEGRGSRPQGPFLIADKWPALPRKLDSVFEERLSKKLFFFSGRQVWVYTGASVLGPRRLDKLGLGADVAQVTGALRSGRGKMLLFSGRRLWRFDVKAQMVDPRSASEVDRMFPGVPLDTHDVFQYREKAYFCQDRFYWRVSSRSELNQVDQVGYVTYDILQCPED
T3 sequence (P08254 100-477): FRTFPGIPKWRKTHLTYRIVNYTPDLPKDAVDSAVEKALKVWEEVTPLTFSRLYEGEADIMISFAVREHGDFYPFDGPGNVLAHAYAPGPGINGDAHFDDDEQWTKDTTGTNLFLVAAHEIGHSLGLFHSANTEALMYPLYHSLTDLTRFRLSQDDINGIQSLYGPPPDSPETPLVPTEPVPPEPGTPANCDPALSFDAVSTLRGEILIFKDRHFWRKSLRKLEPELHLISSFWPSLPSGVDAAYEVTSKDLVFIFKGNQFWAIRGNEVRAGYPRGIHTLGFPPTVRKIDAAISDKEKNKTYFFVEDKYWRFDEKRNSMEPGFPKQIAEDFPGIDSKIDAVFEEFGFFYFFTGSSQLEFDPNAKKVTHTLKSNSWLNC

| SMILES | Ki [2, 7] | Ki [3, 8] | Ki [4, 9] | further results |
| --- | --- | --- | --- | --- |
| CC(CC(=O)c1ccc(-c2ccccc2)cc1)C(=O)O (centres unmarked) [XLVII] | – | – | – | activity as anti-inflammatory analgesic agents [1]: inactive |
| O=C(CC(C(=O)O)c1ccccc1)c1ccc(-c2ccccc2)cc1 (centres unmarked) [XLIX] | – | – | – | activity as anti-inflammatory analgesic agents [1]: inactive |
| O=C(CC(CCc1ccc(C(=O)N2CCOCC2)cc1)C(=O)O)c1ccc(-c2ccc(Cl)cc2)cc1 (stereo not drawn) [XVII, 4'-chloro-α-[2-[4-(4-morpholinylcarbonyl)phenyl]ethyl]-γ-oxo-[1,1'-biphenyl]-4-butanoic acid] | 53.6 nM | – | – | Ki [3]: 606 nM; Ki [4]: 236 nM |
| CCOC(=O)CCNC(=O)c1ccccc1CCC(CC(=O)c1ccc(-c2ccc(Cl)cc2)cc1)C(=O)O (centres unmarked) [VII] | – | – | – | Ki [2]: 27.1 nM; Ki [3]: 478 nM; Ki [4]: 131 nM |
| O=C(O)CCNC(=O)c1cccc(CCC(CC(=O)c2ccc(-c3ccc(Cl)cc3)cc2)C(=O)O)c1 (stereo not drawn) [Compound XXVI, α-[2-[3-[[(2-carboxyethyl)amino]carbonyl]phenyl]ethyl]-4'-chloro-γ-oxo-[1,1'-biphenyl]-4-butanoic acid] | 76.6 nM | 706 nM | 178 nM | – |
| CNC(=O)[C@H](Cc1ccccc1)NC(=O)[C@H](CC(C)C)[C@H](CSc1cccs1)C(=O)NO [batimastat] | – | – | – | human colon tumor growth and spread [5]: inhibits human colon tumor growth and spread; survival of mice bearing human ovarian carcinoma xenografts [6]: prolongs the survival |
| O=C(CC(CCc1ccc(C(=O)NCCN2CCOCC2)cc1)C(=O)O)c1ccc(-c2ccc(Cl)cc2)cc1 (centres unmarked) [XXIX] | 81.4 nM | – | – | Ki ([3]; read-out: MMP-9 Ki, P218 6 μM, pH 6.5, 25 min, 37° C.): 449 nM; Ki ([4]; read-out: MMP-3 Ki, P218 6 μM, pH 6.5, 25 min, 37° C.): 465 nM |
| O=C(CC(CCc1ccccc1C(=O)NCCN1CCOCC1)C(=O)O)c1ccc(-c2ccc(Cl)cc2)cc1 (stereo not drawn) [Compound XXV, 4'-chloro-α-[2 [2-[[[2-(4-morpholinyl)ethyl]amino]carbonyl]phenyl]ethyl]-γ-oxo-[1,1'-biphenyl]-4-butanoic acid] | 51.4 nM | 744 nM | 371 nM | – |
| O=C(CC(CCc1cccc(C(=O)NCCN2CCOCC2)c1)C(=O)O)c1ccc(-c2ccc(Cl)cc2)cc1 (stereo not drawn) [XXVII, 4'-chloro-α-[2-[3-[[[2-(-morpholinyl)ethyl]amino]carbonyl]phenyl]ethyl]-γ-oxo-[1,1'-biphenyl]-4-butanoic acid] | – | 786 nM | 353 nM | Ki [2]: 48 nM |
| O=C(O)CC(C(=O)c1ccc(-c2ccccc2)cc1)c1ccccc1 (centres unmarked) [LXXVII] | – | – | – | activity as anti-inflammatory analgesic agents [1]: inactive |
| O=C(CC(CCc1ccccc1C(=O)N1CCOCC1)C(=O)O)c1ccc(-c2ccc(Cl)cc2)cc1 (centres unmarked) [II] | 12.1 nM | – | – | Ki [3]: 323 nM; Ki [4]: 122 nM |
| O=C(CC(CCc1ccccc1C(=O)N1CCCCC1)C(=O)O)c1ccc(-c2ccc(OCc3ccccc3)cc2)cc1 (centres unmarked) [Compound XXXII] | – | 167 nM | 14.8 nM | Ki [2]: 13 nM |
| O=C(CC(CCc1cccc(C(=O)N2CCCCC2)c1)C(=O)O)c1ccc(-c2ccc(Cl)cc2)cc1 (stereo not drawn) [XI, 4'-chloro-γ-oxo-α-[2-[3-(1-piperidinylcarbonyl)phenyl]ethyl]-[1,1'-biphenyl]-4-butanoic acid] | 10.3 nM | 58.1 nM | 34.4 nM | – |
